In ChEMBL document CHEMBL4251615, “Discovery of anilino-furo[2,3-d]pyrimidine derivatives as dual inhibitors of EGFR/HER2 tyrosine kinase and their anticancer activity” (Eur J Med Chem, 2018):

Key:
Assay type in all cases: functional
OVCAR-8 = test: Growth inhibition of human OVCAR8 cells assessed as cell growth at 10 uM incubated for 48 hrs by sulforhodamine B assay relative to control; conditions: OVCAR-8, 48 h, read-out: Activity
HL-60(TB) = test: Growth inhibition of human HL-60(TB) cells assessed as cell growth at 10 uM incubated for 48 hrs by sulforhodamine B assay relative to control; conditions: HL-60, 48 h, read-out: Activity
RPMI-8226 = test: Growth inhibition of human RPMI8226 cells assessed as cell growth at 10 uM incubated for 48 hrs by sulforhodamine B assay relative to control; conditions: RPMI-8226, 48 h, read-out: Activity
Hs-578T = test: Growth inhibition of human Hs 578T cells assessed as cell growth at 10 uM incubated for 48 hrs by sulforhodamine B assay relative to control; conditions: read-out: Activity
NCI-H522 = test: Growth inhibition of human NCI-H522 cells assessed as cell growth at 10 uM incubated for 48 hrs by sulforhodamine B assay relative to control; conditions: NCI-H522, 48 h, read-out: Activity
HCT-116 = test: Growth inhibition of human HCT116 cells assessed as cell growth at 10 uM incubated for 48 hrs by sulforhodamine B assay relative to control; conditions: HCT-116, 48 h, read-out: Activity
MOLT-4 = test: Growth inhibition of human MOLT4 cells assessed as cell growth at 10 uM incubated for 48 hrs by sulforhodamine B assay relative to control; conditions: MOLT-4, 48 h, read-out: Activity
KM12 = test: Growth inhibition of human KM12 cells assessed as cell growth at 10 uM incubated for 48 hrs by sulforhodamine B assay relative to control; conditions: KM12, 48 h, read-out: Activity
SW-620 = test: Growth inhibition of human SW620 cells assessed as cell growth at 10 uM incubated for 48 hrs by sulforhodamine B assay relative to control; conditions: SW-620, 48 h, read-out: Activity
Malme-3M = test: Growth inhibition of human MALME-3M cells assessed as cell growth at 10 uM incubated for 48 hrs by sulforhodamine B assay relative to control; conditions: read-out: Activity
SK-MEL-5 = test: Growth inhibition of human SK-MEL-5 cells assessed as cell growth at 10 uM incubated for 48 hrs by sulforhodamine B assay relative to control; conditions: SK-MEL-5, 48 h, read-out: Activity
NCI-H23 = test: Growth inhibition of human NCI-H23 cells assessed as cell growth at 10 uM incubated for 48 hrs by sulforhodamine B assay relative to control; conditions: NCI-H23, 48 h, read-out: Activity
SK-MEL-2 = test: Growth inhibition of human SK-MEL-2 cells assessed as cell growth at 10 uM incubated for 48 hrs by sulforhodamine B assay relative to control; conditions: SK-MEL-2, 48 h, read-out: Activity
M14 = test: Growth inhibition of human M14 cells assessed as cell growth at 10 uM incubated for 48 hrs by sulforhodamine B assay relative to control; conditions: M14, 48 h, read-out: Activity
CCRF-CEM = test: Growth inhibition of human CCRF-CEM cells assessed as cell growth at 10 uM incubated for 48 hrs by sulforhodamine B assay relative to control; conditions: read-out: Activity
HT-29 = test: Growth inhibition of human HT-29 cells assessed as cell growth at 10 uM incubated for 48 hrs by sulforhodamine B assay relative to control; conditions: HT-29, 48 h, read-out: Activity
786-0 = test: Growth inhibition of human 786-0 cells assessed as cell growth at 10 uM incubated for 48 hrs by sulforhodamine B assay relative to control; conditions: 786-0, 48 h, read-out: Activity
SN12C = test: Growth inhibition of human SN12C cells assessed as cell growth at 10 uM incubated for 48 hrs by sulforhodamine B assay relative to control; conditions: read-out: Activity
MDA-MB-435 = test: Growth inhibition of human MDA-MB-435 cells assessed as cell growth at 10 uM incubated for 48 hrs by sulforhodamine B assay relative to control; conditions: MDA-MB-435, 48 h, read-out: Activity
SK-MEL-28 = test: Growth inhibition of human SK-MEL-28 cells assessed as cell growth at 10 uM incubated for 48 hrs by sulforhodamine B assay relative to control; conditions: SK-MEL-28, 48 h, read-out: Activity
OVCAR-5 = test: Growth inhibition of human OVCAR5 cells assessed as cell growth at 10 uM incubated for 48 hrs by sulforhodamine B assay relative to control; conditions: OVCAR-5, 48 h, read-out: Activity
SNB-75 = test: Growth inhibition of human SNB75 cells assessed as cell growth at 10 uM incubated for 48 hrs by sulforhodamine B assay relative to control; conditions: SNB-75, 48 h, read-out: Activity
EKVX = test: Growth inhibition of human EKVX cells assessed as cell growth at 10 uM incubated for 48 hrs by sulforhodamine B assay relative to control; conditions: read-out: Activity
SR = test: Growth inhibition of human SR cells assessed as cell growth at 10 uM incubated for 48 hrs by sulforhodamine B assay relative to control; conditions: read-out: Activity
HCC 2998 = test: Growth inhibition of human HCC2998 cells assessed as cell growth at 10 uM incubated for 48 hrs by sulforhodamine B assay relative to control; conditions: HCC 2998, 48 h, read-out: Activity
UO-31 = test: Growth inhibition of human UO31 cells assessed as cell growth at 10 uM incubated for 48 hrs by sulforhodamine B assay relative to control; conditions: UO-31, 48 h, read-out: Activity
DU-145 = test: Growth inhibition of human DU145 cells assessed as cell growth at 10 uM incubated for 48 hrs by sulforhodamine B assay relative to control; conditions: DU-145, 48 h, read-out: Activity
COLO 205 = test: Growth inhibition of human COLO205 cells assessed as cell growth at 10 uM incubated for 48 hrs by sulforhodamine B assay relative to control; conditions: COLO 205, 48 h, read-out: Activity
A549 = test: Growth inhibition of human A549/ATCC cells assessed as cell growth at 10 uM incubated for 48 hrs by sulforhodamine B assay relative to control; conditions: A549, 48 h, read-out: Activity
PC-3 = test: Growth inhibition of human PC3 cells assessed as cell growth at 10 uM incubated for 48 hrs by sulforhodamine B assay relative to control; conditions: PC-3, 48 h, read-out: Activity
UACC-62 = test: Growth inhibition of human UACC62 cells assessed as cell growth at 10 uM incubated for 48 hrs by sulforhodamine B assay relative to control; conditions: UACC-62, 48 h, read-out: Activity
SK-OV-3 = test: Growth inhibition of human SKOV3 cells assessed as cell growth at 10 uM incubated for 48 hrs by sulforhodamine B assay relative to control; conditions: SK-OV-3, 48 h, read-out: Activity
TK-10 = test: Growth inhibition of human TK10 cells assessed as cell growth at 10 uM incubated for 48 hrs by sulforhodamine B assay relative to control; conditions: TK-10, 48 h, read-out: Activity

SMILES | growth at 10 µM (OVCAR-8) | growth at 10 µM (HL-60(TB)) | growth at 10 µM (RPMI-8226) | growth at 10 µM (Hs-578T) | growth at 10 µM (NCI-H522) | growth at 10 µM (HCT-116) | growth at 10 µM (MOLT-4) | growth at 10 µM (KM12) | growth at 10 µM (SW-620) | growth at 10 µM (Malme-3M) | growth at 10 µM (SK-MEL-5) | growth at 10 µM (NCI-H23) | growth at 10 µM (SK-MEL-2) | growth at 10 µM (M14) | growth at 10 µM (CCRF-CEM) | growth at 10 µM (HT-29) | growth at 10 µM (786-0) | growth at 10 µM (SN12C) | growth at 10 µM (MDA-MB-435) | growth at 10 µM (SK-MEL-28) | also measured
Cc1oc2ncnc(Nc3cccc(Cl)c3)c2c1CO | 108% | 54% | 70.4% | 96.2% | 89.8% | 81.6% | 86.2% | 91.4% | 93.2% | 88.1% | 87.9% | 87.5% | 98.1% | 94% | 100% | 90.5% | 78.3% | 88.6% | 93.1% | 106% | growth at 10 µM (OVCAR-5): 74.3%; growth at 10 µM (SNB-75): 86.5%; growth at 10 µM (EKVX): 64.4%; growth at 10 µM (SR): 62.2%; growth at 10 µM (HCC 2998): 93.2%; growth at 10 µM (UO-31): 56.9%; growth at 10 µM (DU-145): 86.2%; growth at 10 µM (COLO 205): 93.9%; growth at 10 µM (A549): 82.1%; growth at 10 µM (PC-3): 71.3%; growth at 10 µM (UACC-62): 76.4%; growth at 10 µM (SK-OV-3): 101%; growth at 10 µM (TK-10): 65.2%
Cc1oc2ncnc(Nc3ccccc3)c2c1C(=O)NCCO | 113% | 64.9% | 94.8% | 90.5% | 96.6% | 99.3% | -0.28% | 95.2% | 95.1% | 107% | 97.5% | 92% | 113% | 106% | 97.4% | 106% | 98.7% | 93.2% | 102% | 99% | growth at 10 µM (OVCAR-5): 93.2%; growth at 10 µM (SNB-75): 90.7%; growth at 10 µM (EKVX): 97.6%; growth at 10 µM (SR): 52.2%; growth at 10 µM (HCC 2998): 103%; growth at 10 µM (UO-31): 87.7%; growth at 10 µM (DU-145): 105%; growth at 10 µM (COLO 205): 100%; growth at 10 µM (A549): 98.1%; growth at 10 µM (PC-3): 107%; growth at 10 µM (UACC-62): 86.2%; growth at 10 µM (SK-OV-3): 100%; growth at 10 µM (TK-10): 122%
CCOC(=O)c1c(C)oc2ncnc(Nc3ccc(OCc4cccc(C)c4)cc3)c12 | 106% | 108% | 117% | 102% | 81% | 90.6% | 115% | 96.1% | 101% | 126% | 99.2% | 94.9% | 100% | 86.5% | 107% | 87.5% | 103% | 88.6% | 104% | 101% | growth at 10 µM (OVCAR-5): 107%; growth at 10 µM (SNB-75): 106%; growth at 10 µM (EKVX): 94.5%; growth at 10 µM (SR): 116%; growth at 10 µM (HCC 2998): 114%; growth at 10 µM (UO-31): 101%; growth at 10 µM (DU-145): 101%; growth at 10 µM (COLO 205): 100%; growth at 10 µM (A549): 88.9%; growth at 10 µM (PC-3): 93.4%; growth at 10 µM (UACC-62): 80.7%; growth at 10 µM (SK-OV-3): 96.7%; growth at 10 µM (TK-10): 94.7%
Cc1cccc(Nc2ncnc3oc(C)c(C(=O)NCCO)c23)c1 | 104% | 84.6% | 95.7% | 100% | 91.8% | 93% | 57.4% | 93.9% | 96% | 109% | 94.6% | 92.8% | 113% | 103% | 74% | 99.8% | 99% | 97.1% | 97.2% | 102% | growth at 10 µM (OVCAR-5): 95.3%; growth at 10 µM (SNB-75): 110%; growth at 10 µM (EKVX): 91.8%; growth at 10 µM (SR): 90.8%; growth at 10 µM (HCC 2998): 99.4%; growth at 10 µM (UO-31): 86.2%; growth at 10 µM (DU-145): 103%; growth at 10 µM (COLO 205): 99%; growth at 10 µM (A549): 89.4%; growth at 10 µM (PC-3): 96.1%; growth at 10 µM (UACC-62): 83.1%; growth at 10 µM (SK-OV-3): 94.8%; growth at 10 µM (TK-10): 102%
